A short description of data set [1]: Aqueous solubility determination. The class given is physicochemical.
A short description of data set [2]: Human liver microsome stability assay. As to conditions: for microsomal CLint at 1 μM: human, human liver microsomes, pH 7.4; for HLM t1/2: human liver microsomes 0.1 mg/mL, 1 μM compound, 37 °C, at least two experiments. The data set is classed as in vitro ADME.
For another data set, the system named is HIV-1 NL4-3 (wild-type). Nature of the data set: microbe, parasite or virus in culture. The data set is classed as cell-based. Conditions: for EC50: Human immunodeficiency virus 1, NL43, TZM-bl; for SI (selectivity index): ratio CC50/EC50.
Data set [3] is described as follows: In vitro cytotoxicity in TZM-bl cells. The class given is cell-based. As to conditions: human.

The structures appear in SMILES notation. In brackets after ≈: the same amount, converted by molar mass. Where two headings read alike, the source gives them in different places.

What is called solubility is how much of the substance goes into solution per volume. A low value points to a poorly soluble substance. In data set [1] (0.01 M HCl, pH 2), `Cc1cc(CO)cc(C)c1Oc1cc(Nc2ccc(C#N)cc2)c(N)cc1CO` [13e, N^1-(4′-Cyanophenyl)-5-(2″,6″-dimethyl-4″-hydroxymethylphenoxy)-4-hydroxymethylbenzene-1,2-diamine] came in with a solubility at 4 h of 20.9 to 44.7 µg/mL (≈ 53.7 to 115 µM).

As usually defined, the microsomal CLint is the rate of metabolic loss divided by the concentration. The compound `Cc1cc(/C=C/C#N)cc(C)c1Oc1cc(Nc2ccc(C#N)cc2)c(N)cc1C(F)(F)F` [14a, (E)-N^1-(4′-Cyanophenyl)-5-(4″-cyanovinyl-2″,6″-dimethylphenoxy)-4-trifluoromethylbenzene-1,2-diamine] came in with a microsomal CLint at 1 μM in data set [2] of 150 µL/min/mg.

As usually defined, the EC50 is the concentration giving half of the maximal effect. For `COC(=O)c1cc(N)c(Nc2ccc(C#N)cc2)cc1Oc1c(C)cc(/C=C/C#N)cc1C` [14c, (E)-N^1-(4′-Cyanophenyl)-5-(4″-cyanovinyl-2″,6″-dimethylphenoxy)-4-methoxycarbonylbenzene-1,2-diamine], the EC50 stood at 2.74 nM in the data set with HIV-1 NL4-3 (wild-type) and 2.74 ± 0.71 nM in the data set with HIV-1 NL4-3 (wild-type) (read-out: EC50 NL4-3 (wt)). The microsomal CLint at 1 μM in data set [2] came out at 20 µL/min/mg.

Take `Cc1cc(/C=C/C#N)cc(C)c1Oc1cc(Nc2ccc(C#N)cc2)c(N)cc1C(=O)O` [14d, (E)-4-Carboxy-N^1-(4′-cyanophenyl)-5-(4″-cyanovinyl-2″,6″-dimethylphenoxy)benzene-1,2-diamine]: the EC50 with HIV-1 NL4-3 (wild-type) (read-out: EC50 NL4-3 (wt)) came to 230 ± 38 nM.

As to `Cc1cc(/C=C/C#N)cc(C)c1Oc1cc(Nc2ccc(C#N)cc2)c(N)cc1C(N)=O` [14e, (E)-4-Carbamoyl-N^1-(4′-cyanophenyl)-5-(4″-cyanovinyl-2″,6″-dimethylphenoxy)benzene-1,2-diamine], the EC50 worked out at 0.87 nM in the data set with HIV-1 NL4-3 (wild-type), 0.87 nM with HIV-1 NL4-3 (wild-type) (read-out: EC50 NL4-3) and 0.87 ± 0.28 nM with HIV-1 NL4-3 (wild-type) (read-out: EC50 NL4-3 (wt)).

For `CNC(=O)c1cc(N)c(Nc2ccc(C#N)cc2)cc1Oc1c(C)cc(/C=C/C#N)cc1C` [14f, (E)-N^1-(4′-Cyanophenyl)-5-(4″-cyanovinyl-2″,6″-dimethylphenoxy)-4-methylcarbamoylbenzene-1,2-diamine], the EC50 came out at 5.72 nM in the data set with HIV-1 NL4-3 (wild-type) and 5.72 ± 0.94 nM in the data set with HIV-1 NL4-3 (wild-type) (read-out: EC50 NL4-3 (wt)). The compound further gave a microsomal CLint at 1 μM in data set [2] of 150 µL/min/mg.

With `Cc1cc(/C=C/C#N)cc(C)c1Oc1cc(Nc2ccc(C#N)cc2)c(N)cc1CO` [14h, (E)-N^1-(4′-Cyanophenyl)-5-(4″-cyanovinyl-2″,6″-dimethylphenoxy)-4-hydroxymethylbenzene-1,2-diamine], the EC50 with HIV-1 NL4-3 (wild-type) was 0.53 nM; in the data set with HIV-1 NL4-3 (wild-type) (read-out: EC50 NL4-3), 0.53 nM; in the data set with HIV-1 NL4-3 (wild-type) (read-out: EC50 NL4-3 (wt)), 0.53 ± 0.13 nM. For the same compound, the “HLM t1/2” value in data set [2] was found to be 30.2 min.

Turning to `Cc1cc(CCC#N)cc(C)c1Oc1cc(Nc2ccc(C#N)cc2)c(N)cc1C(F)(F)F` [15a, 5-(4″-Cyanoethyl-2″,6″-dimethylphenoxy)-N^1-(4′-cyanophenyl)-4-trifluoromethylbenzene-1,2-diamine], the “SI (selectivity index)” value with HIV-1 NL4-3 (wild-type) (Table 1) is listed as above 6454. This compound also came in with a solubility at 4 h in data set [1] (0.01 M HCl, pH 2, Aqueous solubility pH 2.0, Table 4, pH 2.0, triplicate) of 0.33 µg/mL (≈ 0.733 µM). In data set [2], the microsomal CLint at 1 μM is 120 µL/min/mg.

`COC(=O)c1cc(N)c(Nc2ccc(C#N)cc2)cc1Oc1c(C)cc(CCC#N)cc1C` [15c, 5-(4″-Cyanoethyl-2″,6″-dimethylphenoxy)-N^1-(4′-cyanophenyl)-4-methoxycarbonylbenzene-1,2-diamine] had a microsomal CLint at 1 μM in data set [2] of 40 µL/min/mg.

Compound `Cc1cc(CCC#N)cc(C)c1Oc1cc(Nc2ccc(C#N)cc2)c(N)cc1C(N)=O` [15e, 4-Carbanoyl-N^1-(4′-cyanophenyl)-5-(4″-cyanoethyl-2″,6″-dimethylphenoxy)benzene-1,2-diamine] showed a microsomal CLint at 1 μM in data set [2] of 160 µL/min/mg.

Take `CNC(=O)c1cc(N)c(Nc2ccc(C#N)cc2)cc1Oc1c(C)cc(CCC#N)cc1C` [15f, 5-(4″-Cyanoethyl-2″,6″-dimethylphenoxy)-N^1-(4′-cyanophenyl)-4-methylcarbanoylbenzene-1,2-diamine]: the microsomal CLint at 1 μM in data set [2] is 120 µL/min/mg.

For the compound `Cc1cc(CCC#N)cc(C)c1Oc1cc(Nc2ccc(C#N)cc2)c(N)cc1CO` [15h, 5-(4″-Cyanoethyl-2″,6″-dimethylphenoxy)-N^1-(4′-cyanophenyl)-4-hydroxymethylbenzene-1,2-diamine], in data set [2], the microsomal CLint at 1 μM worked out at 330 µL/min/mg.

For `Cc1cc(CCC#N)cc(C)c1Oc1cc(Nc2ccc(C#N)cc2)c(N)cc1N` [15i, 5-(4″-Cyanoethyl-2″,6″-dimethyl)phenoxy-N^1-(4′-cyanophenyl)benzene-1,2,4-triamine], the “SI (selectivity index)” value with HIV-1 NL4-3 (wild-type) (Table 2) is given as above 3906.

As usually defined, the CC50 is the concentration giving 50% cytotoxicity. The low end stands for harm at low concentration, the high end for better tolerance by the cells. As to `Cc1cc(/C=C/C#N)cc(C)c1Nc1ccnc(Nc2ccc(C#N)cc2)n1` [compound 2, rilpivirine, reference compound], the CC50 at 4 days in data set [3] stood at 19.4 µM. In addition, the “HLM t1/2” value in data set [2] is listed as 34.2 min.

Take `Cc1cc(/C=C/C#N)cc(C)c1Oc1cc(Nc2ccc(C#N)cc2)c(N)cc1[N+](=O)[O-]` [compound 3]: the concentration in solution in data set [1] (solubility at 4 h) came to 0.29 µg/mL (≈ 0.682 µM).

These data come from PMC3462592 (Journal of medicinal chemistry, 2012).
